Earlier results on one compound are cited in US20020119970A1, “Method for treating glaucoma IIB” (priority 2000, published 2002).

For data set [1], the system named is Rhesus monkeys. To be noted: accommodative responses to i.m. pilocarpine; result referred to co-filed application "Methods for Treating Glaucoma I".
Data set [2] deals with Aged Rhesus monkeys. The settings on record: drug treated vs. control eye; baseline and pilocarpine-stimulated conditions; result referred to co-filed application "Methods for Treating Glaucoma I".

For `Cc1sc[n+](CC(=O)c2ccccc2)c1C.[Cl-]` [4,5-dimethyl-3-(2-oxoethyl-phenethyl)thiazolium chloride], in data set [1], the Improvement in accommodation result is “Improvement in accommodation has been illustrated”. In data set [2], the “improvement in ophthalmologic function (fluid outflow facility)” value is recorded as “improvement has been illustrated”.
